This is an account of results in ChEMBL document CHEMBL3758149, “3-(Piperidin-4-ylmethoxy)pyridine Containing Compounds Are Potent Inhibitors of Lysine Specific Demethylase 1” (J Med Chem, 2016).

The first test concerns the target T1, Amine oxidase [flavin-containing] A (Homo sapiens, UniProt P21397).
T1 sequence (P21397 whole entry): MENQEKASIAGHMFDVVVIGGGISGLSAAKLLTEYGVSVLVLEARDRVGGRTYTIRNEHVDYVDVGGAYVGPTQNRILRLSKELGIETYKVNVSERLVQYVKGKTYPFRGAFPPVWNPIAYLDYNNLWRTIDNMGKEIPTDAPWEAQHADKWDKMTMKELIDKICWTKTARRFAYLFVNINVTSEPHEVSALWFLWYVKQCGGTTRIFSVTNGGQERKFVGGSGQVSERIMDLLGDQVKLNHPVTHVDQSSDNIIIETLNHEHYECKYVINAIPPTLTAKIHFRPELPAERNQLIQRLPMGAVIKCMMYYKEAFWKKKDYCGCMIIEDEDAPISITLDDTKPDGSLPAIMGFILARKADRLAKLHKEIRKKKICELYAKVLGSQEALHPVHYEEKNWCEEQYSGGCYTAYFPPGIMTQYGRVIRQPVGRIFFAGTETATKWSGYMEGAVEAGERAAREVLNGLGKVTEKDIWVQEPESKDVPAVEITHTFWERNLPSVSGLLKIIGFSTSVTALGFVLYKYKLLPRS
Description: Inhibition of recombinant human MAO-A after 60 mins MAO-glo assay
As for `N#Cc1ccc(-c2cc(OCC3CCNCC3)cnc2-c2ccccc2)cc1`, the Ki (commonly the equilibrium dissociation constant of an inhibitor or competing ligand from its target) is > 50 µM. Same read-out and setting: under `N#Cc1ccc(-c2cc(OCC3CCNCC3)cnc2-c2ccc(OC(F)(F)F)cc2)cc1` stands > 50 µM.

In the case of `Cc1ccc(-c2ncc(OCC3CCNCC3)cc2-c2ccc(C#N)cc2)cc1`, the Ki was > 50 µM.

As for `N#Cc1ccc(-c2cc(OCC3CCNCC3)cnc2-c2ccc(C(F)(F)F)cc2)cc1`, the Ki was > 50 µM.

In the next test the target is T2, Lysine-specific histone demethylase 1A (Homo sapiens, UniProt O60341).
Take `CN1CCN(C(=O)CN[C@H]2C[C@@H]2c2ccc(-c3ccc(F)nc3)cc2)CC1` (relative stereo): the IC50 (commonly the concentration that gives 50% inhibition) worked out at 0.077 µM. This lies in the double-digit nanomolar range.

A further test deals with T2, Lysine-specific histone demethylase 1A. This is another data set of the same source.
For the compound `Cc1ccc(-c2ncc(OCC3CCNCC3)cc2-c2ccc(CN3CCCCC3)cc2)cc1`, the Ki is > 50 µM. The compound `N#Cc1ccc(-c2ncc(OCC3CCNCC3)nc2-c2ccc(C#N)cc2)cc1` came in with a Ki of 9.1 µM. The same measure, in the same setting: the result for `Cc1ccc(-c2ncc(OCC3CCNCC3)cc2-c2ccc(C(=O)N3CCOCC3)cc2)cc1` reads > 50 µM; that for `Cc1ccc(-c2ncc(OCc3ccccc3)cc2-c2ccc(C#N)cc2)cc1`, > 50 µM; that for `N#Cc1ccc(-c2nc(OCC3CCNCC3)cnc2-c2ccc(Br)cc2)cc1`, 0.54 µM. The same measure, in the same setting: under `c1ccc(-c2ccc(OCC3CCNCC3)cn2)cc1` stands > 50 µM; under `C#Cc1ccc(-c2cc(OCC3CCNCC3)cnc2-c2ccc(C)cc2)cc1`, > 50 µM. The same measure, in the same setting: under `Brc1ccc(-c2ncc(OCC3CCNCC3)nc2-c2ccc(Br)cc2)cc1` stands 26.2 µM; under `N#Cc1ccc(-c2ncc(OCC3CCNCC3)nc2-c2ccc(Br)cc2)cc1`, 16.5 µM; under `Cc1ccc(-c2ncc(OCC3CCNCC3)cc2-c2ccc(C(=O)N3CCNCC3)cc2)cc1`, > 50 µM. For the compound `Cc1ccc(-c2ncc(OCC3CCNCC3)cc2-c2ccc(C(=O)O)cc2)cc1`, the inhibitory constant (Ki) is > 50 µM. On to `Cc1ccc(-c2ncc(OCC3CCNCC3)cc2-c2ccc(CO)cc2)cc1`, for which the Ki was > 50 µM. Still for that read-out and setting: the result for `Cc1ccc(-c2ncc(OCC3CCNCC3)cc2-c2ccc(C(=O)N3CCCCC3)cc2)cc1` reads > 50 µM; that for `c1ccc(-c2cc(OCC3CCNCC3)cnc2-c2ccccc2)cc1`, > 50 µM; that for `Cc1ccc(-c2ncc(O)cc2-c2ccc(C#N)cc2)cc1`, > 50 µM. `Cc1ccc(-c2ncc(OCC3CCNCC3)cc2-c2ccc(C(=O)NC3CC3)cc2)cc1`: the Ki is > 50 µM.
